Where two headings read alike, the source gives them in different places.
Test system: wild-type HIV-1 strain IIIB
Test: microbe, parasite or virus in culture
Assay type: cell-based
Parameters: scale not given here
[1] = Human immunodeficiency virus 1, IIIB
[2] = Human immunodeficiency virus 1, IIIB, MT2, 120 h, read-out: Anti-HIV-1 Cell Culture Activity EC50

SMILES	EC50 [1] [nM]	EC50 (read-out: EC50) [nM]	also measured
CCOP(=O)(COc1ccc2c(c1)CN(CC(NC(=O)OC1COC3OCCC13)C(O)CN(CC(C)C)S(=O)(=O)c1ccc(OC)cc1)C2)OCC (centres unmarked)	> 5000	–	–
COc1ccc(S(=O)(=O)N(CC2CCNCC2)CC(O)C(Cc2ccc(O)cc2)NC(=O)OC2COC3OCCC23)cc1 (centres unmarked)	> 5000	–	–
COc1ccc(S(=O)(=O)N(CC2CCN(C=O)CC2)CC(O)C(Cc2ccc(OCP(=O)(O)O)cc2)NC(=O)OC2COC3OCCC23)cc1 (centres unmarked)	> 5000	–	–
CCOP(=O)(COc1ccc(CC(NC(=O)OC2COC3OCCC23)C(O)CN(CC2CCN(C=O)CC2)S(=O)(=O)c2ccc(OC)cc2)cc1)OCC (centres unmarked)	> 5000	–	–
CCOP(=O)(COc1ccc(CC(NC(=O)OC2COC3OCCC23)C(O)CN(CC2CCN(C)CC2)S(=O)(=O)c2ccc(OC)cc2)cc1)OCC (centres unmarked)	> 5000	–	–
CC(C)CN(CC(O)C(Cc1ccc(OCP(=O)(O)O)cc1)NC(=O)OC1COC2OCCC12)S(=O)(=O)c1ccccc1 (centres unmarked)	> 5000	–	–
CC(C)CN(CC(O)C(Cc1ccc(OCP(=O)(O)O)cc1)NC(=O)OC1COC2OCCC12)S(=O)(=O)c1ccc(F)cc1 (centres unmarked)	500 to 5000	–	–
CC(C)CN(CC(O)C(Cc1ccc(OCP(=O)(O)O)cc1)NC(=O)OC1COC2OCCC12)S(=O)(=O)c1ccc(C(F)(F)F)cc1 (centres unmarked)	500 to 5000	–	–
CC(C)CN(CC(O)C(Cc1ccc(OCP(=O)(O)O)cc1)NC(=O)OC1COC2OCCC12)S(=O)(=O)c1ccc(OC(F)(F)F)cc1 (centres unmarked)	500 to 5000	–	–
CCOP(=O)(COc1ccc(C[C@H](NC(=O)O[C@H]2CO[C@H]3OCC[C@H]32)[C@H](O)CN(CC(C)C)S(=O)(=O)c2ccc([N+](=O)[O-])cc2)cc1)OCC	–	–	EC50 (nM): + +
CC(C)CN(CC(O)C(Cc1ccc(OCP(=O)(O)O)cc1)NC(=O)OC1COC2OCCC12)S(=O)(=O)N1CCN(C)CC1 (centres unmarked)	> 5000	–	–
COc1ccc(S(=O)(=O)N(CC(C)C)CC(O)C(Cc2ccccc2)NC(=O)OC2COC3OCCC23)cc1OCP(=O)(OCc1ccccc1)OCc1ccccc1 (centres unmarked)	500 to 5000	–	–
CCOC(=O)CNP(=O)(COc1ccc(CC(NC(=O)OC2COC3OCCC23)C(O)CN(CC(C)C)S(=O)(=O)c2ccc(OC)cc2)cc1)NCC(=O)OCC (centres unmarked) [Compound 16a]	–	–	EC50 [2]: 330 ± 230 nM
CCCCOC(=O)C(CC)NP(=O)(COc1ccc(CC(NC(=O)OC2COC3OCCC23)C(O)CN(CC(C)C)S(=O)(=O)c2ccc(OC)cc2)cc1)NC(CC)C(=O)OCCCC (centres unmarked) [Example 16f]	–	–	EC50 [2]: 4.8 ± 1.8 nM
CCCCOC(=O)C(CC(C)C)NP(=O)(COc1ccc(CC(NC(=O)OC2COC3OCCC23)C(O)CN(CC(C)C)S(=O)(=O)c2ccc(OC)cc2)cc1)NC(CC(C)C)C(=O)OCCCC (centres unmarked) [Example 16h]	–	–	EC50 [2]: 120 ± 42 nM
CCOC(=O)C(CC)NP(=O)(COc1ccc(CC(NC(=O)OC2COC3OCCC23)C(O)CN(CC(C)C)S(=O)(=O)c2ccc(OC)cc2)cc1)Oc1ccccc1 (centres unmarked) [Example 16576]	–	12.6 ± 4.8	–
COc1ccc(S(=O)(=O)N(CC(C)C)C[C@@H](O)[C@H](Cc2ccc(OCP(=O)(O)O)cc2)NC(=O)O[C@H]2CO[C@H]3OCC[C@H]32)cc1 [GS8373]	–	4800	–
CC(C)CN(C[C@@H](O)[C@H](Cc1ccc([N+](=O)[O-])cc1)NC(=O)O[C@H]1CO[C@H]2OCC[C@H]21)S(=O)(=O)c1ccc(OCP(=O)(Oc2ccccc2)Oc2ccccc2)cc1 [NO2, phenol]	–	< 50	–
CC(C)CN(CC(O)C(Cc1ccc(OCCN(C)C)cc1)NC(=O)OC1COC2OCCC12)S(=O)(=O)c1ccc(OCP(=O)(OCc2ccccc2)OCc2ccccc2)cc1 (centres unmarked) [OC2H4-NMe2, OBn]	–	50 to 500	–
CC(C)CN(CC(O)C(Cc1ccc(OCCN(C)C)cc1)NC(=O)OC1COC2OCCC12)S(=O)(=O)c1ccc(OCP(=O)(O)O)cc1 (centres unmarked) [OC2H4NMe2, OH]	–	500 to 5000	–
CC(C)CN(CC(O)C(Cc1ccc(O)cc1)NC(=O)OC1COC2OCCC12)S(=O)(=O)c1ccc(OCP(=O)(OCc2ccccc2)OCc2ccccc2)cc1 (centres unmarked) [OH, OBn]	–	50 to 500	–
CC(C)CN(CC(O)C(Cc1ccc(O)cc1)NC(=O)OC1COC2OCCC12)S(=O)(=O)c1ccc(OCP(=O)(O)O)cc1 (centres unmarked) [OH, OH]	–	> 5000	–
COc1ccc(S(=O)(=O)N(CC(C)C)C[C@@H](OP(=O)(O)O)[C@H](Cc2ccccc2)NC(=O)O[C@H]2CO[C@H]3OCC[C@H]32)cc1 [Phosphate prodrug of 94-003]	–	< 50	–
